Key:
rh-MIF = molecular target: T1, rh-MIF (Homo sapiens, UniProt P14174); assay: Mass spectrometry; conditions: 30 μM rh-MIF plus 30 μM compound, 1 hr at room temperature in the dark
T1 sequence (P14174 2-115 limits assumed): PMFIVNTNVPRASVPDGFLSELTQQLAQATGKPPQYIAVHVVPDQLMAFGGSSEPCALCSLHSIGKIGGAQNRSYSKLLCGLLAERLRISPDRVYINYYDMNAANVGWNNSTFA

MIF-CD74 = molecular target: T2, MIF-CD74 (Homo sapiens, UniProt P14174); conditions: cited from earlier work
T2 sequence (P14174 2-115 limits assumed): T1 sequence (P14174 2-115 limits assumed)

Human MIF = molecular target: T3, Human MIF (Homo sapiens, UniProt P14174); conditions: cited from earlier work
T3 sequence (P14174 2-115 limits assumed): T1 sequence (P14174 2-115 limits assumed)

Ic1cc(-c2ccccc2)ncn1 [Cp 4-IPP, 4-iodo-6-phenylpyrimidine]
covalent adduct with MIF by mass spectrometry (rh-MIF): appearance of the covalent adduct at the mass of MIF + ca. 155 Da

Cc1ccc2oc(=O)n(Cc3cccc(O)c3)c2c1 [Cp 5]
covalent adduct with MIF by mass spectrometry (rh-MIF): no additional peaks emerged

CC(=O)N=C1C=CC(=O)C=C1 [NAPQI]
effect on MIF receptor binding activity (MIF-CD74): decreases | effect on MIF tautomerase activity (Human MIF): decreases

Cc1ccc2oc(=O)n(Cc3ccccc3)c2c1 [Cp 1]
mode of inhibition of tautomerase activity (Michaelis-Menten analyses) (Human MIF): competitive inhibitor

Source: publication PMC2939296 (Bioorganic & medicinal chemistry letters, 2010)
